Where a SMILES comes first, the peptide text is derived from it. Bridges are numbered along the chain shown (N, C = ends). [ ]: non-standard residue; d: D form. Nle = CCCC[C@H](N)C(=O)O
Columns and labels:
[1] = system: guinea pig tracheal smooth muscle; assay: Tracheal relaxant activity of VIP analogs on isolated guinea pig tracheal rings; assay type: cell-based; details: cumulative concentration response, relaxation as % of maximum response to VIP (10^-6 M=100%), three tissues pooled, linear regression
Outline: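 Male guinea pig tracheal rings under 1.5 g resting tension in Krebs at 37° C, 95% O2/5% CO2, isometric tension. Cumulative concentration-response curves; relaxation as % of response to 10^-6 M VIP added at end; three tissues pooled, EC50 by linear regression.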

guinea pigs = assay: In vivo bronchodilator activity by tracheal instillation against histamine challenge; set-up: species or system guinea pig; details: anesthetized male guinea pigs, inhibition of histamine (i.v.)-induced rise in tracheal pressure
Outline: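 Urethane-anaesthetised male Hartley guinea pigs (400-600 g) received compound in water by intratracheal instillation, then were paralysed, ventilated and challenged with histamine […] i.v. Tracheal pressure change gave % inhibition (≥3 animals/group); ED50 from log dose-response; duration as time until inhibition fell to 40%.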

Row | Compound | EC50 [1] [nM] | Bronchodilator activity of VIP analogs in guinea pigs, ED50 (guinea pigs) [μg]
1 | CCCC[C@H](NC(=O)[C@H](CCC(N)=O)NC(=O)[C@H](CCCCN)NC(=O)[C@H](CCCNC(=N)N)NC(=O)[C@H](CC(C)C)NC(=O)[C@H](CCCCN)NC(=O)[C@@H](NC(=O)[C@H](Cc1ccc(O)cc1)NC(=O)[C@H](CC(N)=O)NC(=O)[C@H](C)NC(=O)[C@@H](NC(=O)[C@H](Cc1ccccc1)NC(=O)[C@@H](NC(=O)[C@H](C)NC(=O)[C@H](CC(=O)O)NC(=O)[C@H](CO)NC(=O)[C@H](Cc1c[nH]cn1)NC(C)=O)C(C)C)[C@@H](C)O)[C@@H](C)O)C(=O)N[C@@H](C)C(=O)N[C@@H](C)C(=O)N[C@@H](CCCCN)C(=O)N[C@H]1CCCCNC(=O)C[C@@H](C(=O)N[C@@H](CC(C)C)C(=O)N[C@@H](CCCCN)C(=O)N[C@@H](CCCCN)C(N)=O)NC(=O)[C@H](C)NC(=O)[C@H](CC(C)C)NC(=O)[C@H](Cc2ccc(O)cc2)NC1=O [SEQ ID NO:59, Ac-[Ala^8,Lys^12,Nle^17,Ala^19,Ala^24,Asp^25,Leu^26,Lys^27,28]-VIP cyclo (Lys^21 →Asp^25)] (Ac-HSDAVFTANYTKLRKQ[Nle]AAKKYLADLKK-NH2; lactam 21-25) | 1.1 | 0.17
2 | CC(=O)N[C@@H](Cc1c[nH]cn1)C(=O)N[C@@H](CO)C(=O)N[C@@H](CC(=O)O)C(=O)N[C@@H](C)C(=O)N[C@H](C(=O)N[C@@H](Cc1ccccc1)C(=O)N[C@H](C(=O)N[C@@H](CCC(=O)O)C(=O)N[C@@H](CC(N)=O)C(=O)N[C@@H](Cc1ccc(O)cc1)C(=O)N[C@H](C(=O)N[C@@H](CCCCN)C(=O)N[C@@H](CC(C)C)C(=O)N[C@@H](CCCNC(=N)N)C(=O)N[C@@H](CCCCN)C(=O)N[C@@H](C)C(=O)N[C@@H](C)C(=O)N[C@@H](C)C(=O)N[C@@H](C)C(=O)N[C@@H](CCCCN)C(=O)N[C@H]1CCCCNC(=O)C[C@@H](C(=O)N[C@@H](CC(C)C)C(=O)N[C@@H](CCCCN)C(=O)N[C@@H](CCCCN)C(N)=O)NC(=O)[C@H](CC(N)=O)NC(=O)[C@H](CC(C)C)NC(=O)[C@H](Cc2ccc(O)cc2)NC1=O)[C@@H](C)O)[C@@H](C)O)C(C)C [SEQ ID NO:60, Ac-[Glu^8,Lys^12,Ala^16,17,19,Asp^25,Leu^26,Lys^27,28]-VIP cyclo (Lys^21 →Asp^25)] (Ac-HSDAVFTENYTKLRKAAAAKKYLNDLKK-NH2; lactam 21-25) | 0.26 | 0.17
3 | CCCC[C@H](NC(=O)[C@H](C)NC(=O)[C@H](CCCCN)NC(=O)[C@H](CCCNC(=N)N)NC(=O)[C@H](CC(C)C)NC(=O)[C@H](CCCCN)NC(=O)[C@@H](NC(=O)[C@H](Cc1ccc(O)cc1)NC(=O)[C@H](CC(N)=O)NC(=O)[C@H](C)NC(=O)[C@@H](NC(=O)[C@H](Cc1ccccc1)NC(=O)[C@@H](NC(=O)[C@H](C)NC(=O)[C@H](CC(=O)O)NC(=O)[C@H](CO)NC(=O)[C@H](Cc1c[nH]cn1)NC(C)=O)C(C)C)[C@@H](C)O)[C@@H](C)O)C(=O)N[C@@H](C)C(=O)N[C@@H](C)C(=O)N[C@@H](CCCCN)C(=O)N[C@H]1CCCCNC(=O)C[C@@H](C(=O)N[C@@H](CC(C)C)C(=O)N[C@@H](CCCCN)C(=O)N[C@@H](CCCCN)C(N)=O)NC(=O)[C@H](C)NC(=O)[C@H](CC(C)C)NC(=O)[C@H](Cc2ccc(O)cc2)NC1=O [SEQ ID NO:61, Ac-[Ala^8,Lys^12,Ala^16,Nle^17,Ala^19,Ala^24,Asp^25,Leu^26,Lys^27,28]-VIP cyclo (Lys^21 →Asp^25)] (Ac-HSDAVFTANYTKLRKA[Nle]AAKKYLADLKK-NH2; lactam 21-25) | 2.4 | 0.045
4 | CC(=O)N[C@@H](Cc1c[nH]cn1)C(=O)N[C@@H](CO)C(=O)N[C@@H](CC(=O)O)C(=O)N[C@@H](C)C(=O)N[C@H](C(=O)N[C@@H](Cc1ccccc1)C(=O)N[C@H](C(=O)N[C@@H](C)C(=O)N[C@@H](CC(N)=O)C(=O)N[C@@H](Cc1ccc(O)cc1)C(=O)N[C@H](C(=O)N[C@@H](CCCCN)C(=O)N[C@@H](CC(C)C)C(=O)N[C@@H](CCCNC(=N)N)C(=O)N[C@@H](CCCCN)C(=O)N[C@@H](C)C(=O)N[C@@H](C)C(=O)N[C@@H](C)C(=O)N[C@@H](C)C(=O)N[C@@H](CCCCN)C(=O)N[C@H]1CCCCNC(=O)C[C@@H](C(=O)N[C@@H](CC(C)C)C(=O)N[C@@H](CCCCN)C(=O)N[C@@H](CCCCN)C(N)=O)NC(=O)[C@H](C)NC(=O)[C@H](CC(C)C)NC(=O)[C@H](Cc2ccc(O)cc2)NC1=O)[C@@H](C)O)[C@@H](C)O)C(C)C [SEQ ID NO:62, Ac-[Ala^8,Lys^12,Ala^16,17,19,Ala^24,Asp^25,Leu^26,Lys^27,28]-VIP cyclo (Lys^21 →Asp^25)] (Ac-HSDAVFTANYTKLRKAAAAKKYLADLKK-NH2; lactam 21-25) | 0.1 | 0.24
5 | CC(=O)N[C@@H](Cc1c[nH]cn1)C(=O)N[C@@H](CO)C(=O)N[C@@H](CC(=O)O)C(=O)N[C@@H](C)C(=O)N[C@H](C(=O)N[C@@H](Cc1ccccc1)C(=O)N[C@H](C(=O)N[C@@H](CCC(=O)O)C(=O)N[C@@H](CC(N)=O)C(=O)N[C@@H](Cc1ccc(O)cc1)C(=O)N[C@H](C(=O)N[C@@H](CCCCN)C(=O)N[C@@H](CC(C)C)C(=O)N[C@@H](CCCNC(=N)N)C(=O)N[C@@H](CCCCN)C(=O)N[C@@H](C)C(=O)N[C@@H](C)C(=O)N[C@@H](C)C(=O)N[C@@H](C)C(=O)N[C@@H](CCCCN)C(=O)N[C@H]1CCCCNC(=O)C[C@@H](C(=O)N[C@@H](CC(C)C)C(=O)N[C@@H](CCCCN)C(=O)N[C@@H](CCCCN)C(N)=O)NC(=O)[C@H](C)NC(=O)[C@H](CC(C)C)NC(=O)[C@H](Cc2ccc(O)cc2)NC1=O)[C@@H](C)O)[C@@H](C)O)C(C)C [SEQ ID NO:64, Ac-[Glu^8,Lys^12,Ala^16,17,19,Ala^24,Asp^25,Leu^26,Lys^27,28]-VIP cyclo (Lys^21 →Asp^25)] (Ac-HSDAVFTENYTKLRKAAAAKKYLADLKK-NH2; lactam 21-25) | 0.22 | 0.13
6 | CCCC[C@H](NC(=O)[C@H](CCC(N)=O)NC(=O)[C@H](CCCCN)NC(=O)[C@H](CCCNC(=N)N)NC(=O)[C@H](CC(C)C)NC(=O)[C@H](CCCCN)NC(=O)[C@@H](NC(=O)[C@H](Cc1ccc(O)cc1)NC(=O)[C@H](CC(N)=O)NC(=O)[C@H](CCC(=O)O)NC(=O)[C@@H](NC(=O)[C@H](Cc1ccccc1)NC(=O)[C@@H](NC(=O)[C@H](C)NC(=O)[C@H](CC(=O)O)NC(=O)[C@H](CO)NC(=O)[C@H](Cc1c[nH]cn1)NC(C)=O)C(C)C)[C@@H](C)O)[C@@H](C)O)C(=O)N[C@@H](C)C(=O)N[C@@H](C)C(=O)N[C@@H](CCCCN)C(=O)N[C@H]1CCCCNC(=O)C[C@@H](C(=O)N[C@H](C(=O)N[C@@H](CC(C)C)C(=O)N[C@H](C(=O)NCC(=O)NCC(=O)N[C@H](C(N)=O)[C@@H](C)O)[C@@H](C)O)C(C)C)NC(=O)[C@H](CC(N)=O)NC(=O)[C@H](CC(C)C)NC(=O)[C@H](Cc2ccc(O)cc2)NC1=O [SEQ ID NO:65, Ac-[Glu^8,Lys^12,Nle^17,Ala^19,Asp^25,Val^26,Thr^28,Gly^29,30,Thr^31]-VIP cyclo (Lys^21 →Asp^25)] (Ac-HSDAVFTENYTKLRKQ[Nle]AAKKYLNDVLTGGT-NH2; lactam 21-25) | 0.88 | 0.84

Source: patent US5677419A, “Cyclic vasoactive peptide analogs” (Hoffmann-La Roche Inc., priority 1994, dated 1997)
